Assay results taken from patent publication US20070027144A1, “Novel use of cannabinoid receptor agonist” (SHIONOGI & CO., LTD., priority 2003, published 2007).

Assays:
[1] = system: guinea pigs; assay: Antigen-induced airway inflammatory cell infiltration in guinea pigs (acute model); type: in vivo; conditions: oral
Method: (§1) Antigen-induced bronchial hyperresponsiveness in guinea pigs: Guinea pigs (Charles River Japan) held in an exposure chamber were actively sensitized by the inhalation of an aerosolized 1% OVA solution for 10 min using an ultrasonic nebulizer (NE-U12, Omron) twice with an interval of 1 week. One week later, antigen challenge was performed by inhalation of an aerosolized 1% OVA generated by an ultrasonic nebulizer for 5 min. Test compounds were administered orally 1 h before antigen challenge. In addition, guinea pigs were treated with diphenhydramine (10 mg/kg, i.p.), an antihistamine, to protect the animals from anaphylactic death 10 min before antigen challenge. ACh was intravenously injected to guinea pigs 24 h after antigen challenge under urethane anesthesia (1.4 g/kg, i.p.) by increasing doses of ACh every 5 min, then bronchoconstrictor response observed immediately after each ACh injection was measured by the method of Konzett & Rössler with some modifications. Briefly, trachea of guinea pigs was incised and a cannula was attached to the lung side. […] The insufflation pressure overflowed from inhalation tube was monitored by a pressure transducer (TP-400T, Nihon Kohden) and recorded on a recorder (WT-645G, Nihon Kohden) through a carrier amplifier (AP-601G, Nihon Kohden). The area under the curve (AUC) calculated from dose-response curve for ACh was compared between vehicle-treated control group and test compound-treated group, and then statistical significance was analyzed concerning inhibitory effect on bronchial hyperresponsiveness.
Antigen-induced airway inflammatory cell infiltration in guinea pigs: After finishing experiment mentioned above, the lungs are washed 3 times with 10 mL of physiological saline through tracheal cannula using injection syringe. Then the cell number in the washing was determined. […] Differential cell counts were performed after May-Grünwald-Giemsa staining, and then statistical significance was analyzed concerning inhibitory effect on airway inflammatory cell infiltration.

[2] = system: guinea pigs; assay: Antigen-induced bronchial hyperresponsiveness in guinea pigs (acute model); type: in vivo; conditions: oral 1 h before antigen challenge
Method: Antigen-induced bronchial hyperresponsiveness in guinea pigs: Guinea pigs (Charles River Japan) held in an exposure chamber were actively sensitized by the inhalation of an aerosolized 1% OVA solution for 10 min using an ultrasonic nebulizer (NE-U12, Omron) twice with an interval of 1 week. One week later, antigen challenge was performed by inhalation of an aerosolized 1% OVA generated by an ultrasonic nebulizer for 5 min. Test compounds were administered orally 1 h before antigen challenge. In addition, guinea pigs were treated with diphenhydramine (10 mg/kg, i.p.), an antihistamine, to protect the animals from anaphylactic death 10 min before antigen challenge. ACh was intravenously injected to guinea pigs 24 h after antigen challenge under urethane anesthesia (1.4 g/kg, i.p.) by increasing doses of ACh every 5 min, then bronchoconstrictor response observed immediately after each ACh injection was measured by the method of Konzett & Rössler with some modifications. Briefly, trachea of guinea pigs was incised and a cannula was attached to the lung side. An artificial respirator (SN-480-7, Shinano) was connected to the cannula, and then a fixed amount of air (tidal volume: 4 mL, ventilation frequency: 60 times/min) continuously insufflated to maintain respiration. The insufflation pressure overflowed from inhalation tube was monitored by a pressure transducer (TP-400T, Nihon Kohden) and recorded on a recorder (WT-645G, Nihon Kohden) through a carrier amplifier (AP-601G, Nihon Kohden). The area under the curve (AUC) calculated from dose-response curve for ACh was compared between vehicle-treated control group and test compound-treated group, and then statistical significance was analyzed concerning inhibitory effect on bronchial hyperresponsiveness.

[3] = system: guinea pigs; assay: Antigen-induced bronchial hyperresponsiveness in guinea pigs (chronic model); type: in vivo; conditions: oral for 8 days, 30 mg/kg, P<0.05
Method: as §1, with “The area under the curve (AUC) calculated from dose-response curve for ACh was compared between vehicle-treated control group and test compound-treated group, and then statistical significance was analyzed concerning inhibitory effect on bronchial hyperresponsiveness.” left out

[4] = system: BN rats; assay: Antigen-induced airway inflammatory cell infiltration in BN rats (chronic model); type: in vivo; conditions: oral for 8 days, 100 mg/kg, P<0.01
Method: Antigen-induced bronchial hyperresponsiveness in BN rats: BN rats were actively sensitized by the intraperitoneal injection of a mixture containing aluminum hydroxide gel and ovalbumin. Twelve days later, antigen challenge was performed by the inhalation of an aerosolized 1% OVA solution or physiological saline for 30 min using an ultrasonic nebulizer (NE-U12, Omron). To establish chronic bronchial hyerreactivity model, this procedure was repeated 3 times with 1-week intervals. Test compounds were administered orally for 8 days from the day of third antigen challenge. On the day of third antigen challenge, test compounds were administered 1 h before challenge. […] Inhibitory effect on bronchial hyperresponsiveness was evaluated 24 h after last antigen challenge by the method described in the section of Experimental Example 1.
Antigen-induced airway inflammatory cell infiltration in BN rats: After finishing experiment mentioned above, the lungs were washed 3 times with 5 mL of physiological saline through tracheal cannula using injection syringe. Then the cell number in the washing was determined. […] Differential cell counts were performed after May-Grünwald-Giemsa staining, and then statistical significance was analyzed concerning inhibitory effect on airway inflammatory cell infiltration as in the section of Experimental Example 2.

[5] = system: BN rats; assay: Antigen-induced bronchial hyperresponsiveness in BN rats (chronic model); type: in vivo; conditions: oral for 8 days
Method: (§2) Antigen-induced bronchial hyperresponsiveness in BN rats: Brown Norway (BN) rats (Charles River Japan) were actively sensitized by the intraperitoneal injection of 1 mL mixture containing aluminum hydroxide gel (1 mg) and ovalbumin (0.1 mg, OVA). Ten days later, antigen challenge was performed by the inhalation of an aerosolized 1% OVA solution for 30 min using an ultrasonic nebulizer. ACh was intravenously injected to rats 24 h after antigen challenge under sodium pentobarbital anesthesia (80 mg/kg, i.p.) by increasing doses of ACh every 5 min, then bronchoconstrictor response observed immediately after each ACh injection was measured by the method of Konzett & Rössler with some modifications. Briefly, trachea of rats was incised and a cannula was attached to lung side. An artificial respirator (SN-480-7, Shinano) was connected to the cannula, and then a fixed amount of air (tidal volume: 3 mL, ventilation frequency: 60 times/min) continuously insufflated to maintain respiration. The insufflation pressure overflowed from inhalation tube was monitored by a pressure transducer (TP-400T, Nihon Kohden) and recorded on a recorder (WT-645G, Nihon Kohden) through a carrier amplifier (AP-601G, Nihon Kohden). Test compounds were administered orally once 1 h before antigen challenge. The area under the curve (AUC) calculated from dose-response curve for ACh was compared between vehicle-treated control group and test compound-treated group, and then statistical significance was analyzed concerning inhibitory effect on bronchial hyperresponsiveness.
Antigen-induced bronchial hyperresponsiveness in BN rats: BN rats were actively sensitized by the intraperitoneal injection of a mixture containing aluminum hydroxide gel and ovalbumin. Twelve days later, antigen challenge was performed by the inhalation of an aerosolized 1% OVA solution or physiological saline for 30 min using an ultrasonic nebulizer (NE-U12, Omron). […] Inhibitory effect on bronchial hyperresponsiveness was evaluated 24 h after last antigen challenge by the method described in the section of Experimental Example 1.

[6] = system: guinea pigs; assay: Antigen-induced mucus secretion in guinea pigs (chronic model); type: in vivo; conditions: oral for 8 days, 30 mg/kg, P<0.01
Method: (§3) Antigen-induced bronchial hyperresponsiveness in guinea pigs: Guinea pigs held in an exposure chamber were actively sensitized by the inhalation of an aerosolized 1% OVA solution for 10 min using an ultrasonic nebulizer (NE-U12, Omron) twice with an interval of 1 week. One week and 2 weeks later, antigen challenge was performed twice by inhalation of an aerosolized 1% OVA generated by an ultrasonic nebulizer for 5 min. Test compounds were administered orally for 8 days from the day of first antigen challenge. On the day of each antigen challenge, test compounds were administered 1 h before challenge. […] Inhibitory effect on bronchial hyperresponsiveness was evaluated 24 h after last antigen challenge by the method described in the section of Experimental Example 7. The area under the curve (AUC) calculated from dose-response curve for ACh was compared between vehicle-treated control group and test compound-treated group, and then statistical significance was analyzed concerning inhibitory effect on bronchial hyperresponsiveness.
Antigen-induced mucus secretion in guinea pigs: After measurement of bronchial hyperresponsiveness, the lungs are washed 3 times with 10 mL of physiological saline through tracheal cannula using injection syringe, and then the washing was centrifuged. […] Statistical significance was analyzed concerning inhibitory effect on mucus secretion.

[7] = system: guinea pigs; assay: Antigen-induced airway inflammatory cell infiltration in guinea pigs (chronic model); type: in vivo; conditions: oral for 8 days, 30 mg/kg, P<0.01
Method: as §3
Antigen-induced airway inflammatory cell infiltration in guinea pigs: After finishing experiment mentioned above, the lungs are washed 3 times with 10 mL of physiological saline through tracheal cannula using injection syringe. Then the cell number in the washing was determined. […]

[8] = system: BN rats; assay: Antigen-induced mucus secretion in BN rats (acute model); type: in vivo, Brown Norway (BN) rats; conditions: oral, 10 mg/kg, P<0.01
Method: as §2, with “An artificial respirator (SN-480-7, Shinano) was connected to the cannula, and then a fixed amount of air (tidal volume: 3 mL, ventilation frequency: 60 times/min) continuously insufflated to maintain respiration.” left out, “Test compounds were administered orally once 1 h before antigen challenge.” left out, “hyperresponsiveness. […]” for “hyperresponsiveness.”

[9] = system: guinea pigs; assay: Bronchodilating effect in guinea pigs (ACh-induced bronchoconstriction); type: in vivo; conditions: oral 1 h before ACh injection, 10 mg/kg, P<0.01
Method: Under urethane anesthesia (1.4 g/kg, i.p.), ACh was intravenously injected to guinea pigs by increasing doses of ACh every 5 min, then bronchoconstrictor response observed immediately after each ACh injection was measured by the method of Konzett & Rössler with some modifications. Briefly, trachea of guinea pigs was incised and a cannula was attached to the lung side. An artificial respirator (SN-480-7, Shinano) was connected to the cannula, and then a fixed amount of air (tidal volume: 4 mL, ventilation frequency: 60 times/min) continuously insufflated to maintain respiration. The insufflation pressure overflowed from inhalation tube was monitored by a pressure transducer (TP-400T, Nihon Kohden) and recorded on a recorder (WT-645G, Nihon Kohden) through a carrier amplifier (AP-601G, Nihon Kohden). Test compounds were administered orally 1 h before ACh injection, then the effect on the dose-response curve of ACh was examined. Statistical significance was analyzed concerning broncohdilating effect in guinea pigs.

[10] = system: BN rats; assay: Antigen-induced airway inflammatory cell infiltration in BN rats (acute model); type: in vivo, Brown Norway (BN) rats; conditions: oral, P<0.01
Method: as §2, with “An artificial respirator (SN-480-7, Shinano) was connected to the cannula, and then a fixed amount of air (tidal volume: 3 mL, ventilation frequency: 60 times/min) continuously insufflated to maintain respiration.” left out, “Test compounds were administered orally once 1 h before antigen challenge.” left out, “hyperresponsiveness. […]” for “hyperresponsiveness.”

[11] = system: BN rats; assay: Antigen-induced bronchial hyperresponsiveness in BN rats (acute model); type: in vivo, Brown Norway (BN) rats; conditions: oral once 1 h before antigen challenge, 10 mg/kg, P<0.01
Method: as §2, with “An artificial respirator (SN-480-7, Shinano) was connected to the cannula, and then a fixed amount of air (tidal volume: 3 mL, ventilation frequency: 60 times/min) continuously insufflated to maintain respiration.” left out, “Test compounds were administered orally once 1 h before antigen challenge.” left out

CSC(=S)N1CC2(CCCCC2)CS/C1=N\c1ccc(OC(F)(F)F)cc1 [Compound I-12]
significant effect: inhibitory effect on airway inflammatory cell infiltration ([1]; 10 mg/kg, P<0.05) | inhibitory effect on bronchial hyperresponsiveness (AUC of ACh dose-response curve vs vehicle) ([2]; 10 mg/kg, P<0.05) | inhibitory effect on bronchial hyperresponsiveness (AUC of ACh dose-response curve vs vehicle) [3] | inhibitory effect on airway inflammatory cell infiltration [4] | inhibitory effect on bronchial hyperresponsiveness ([5]; 30 mg/kg, P<0.01) | inhibitory effect on bronchial hyperresponsiveness ([5]; 100 mg/kg, P<0.05) | inhibitory effect on mucus secretion (mucin levels in lung washing) [6] | inhibitory effect on airway inflammatory cell infiltration [7]

CCCCn1c2c(cc(C(=O)NC(C)(C)c3ccccc3)c1=O)CCCCCC2 [Compound 4-320]
significant effect: inhibitory effect on mucus secretion (mucin levels in lung washing) [8] | inhibitory effect on airway inflammatory cell infiltration ([1]; 1 mg/kg, P<0.05) | inhibitory effect on airway inflammatory cell infiltration ([1]; 10 mg/kg, P<0.01) | inhibitory effect on bronchial hyperresponsiveness (AUC of ACh dose-response curve vs vehicle) ([2]; 1 mg/kg, P<0.01) | inhibitory effect on bronchial hyperresponsiveness (AUC of ACh dose-response curve vs vehicle) ([2]; 10 mg/kg, P<0.05) | inhibitory effect on bronchial hyperresponsiveness ([5]; 3 mg/kg, P<0.01) | bronchodilating effect (effect on the dose-response curve of ACh) [9] | inhibitory effect on airway inflammatory cell infiltration ([10]; 1 mg/kg) | inhibitory effect on airway inflammatory cell infiltration ([10]; 10 mg/kg) | inhibitory effect on bronchial hyperresponsiveness (AUC of ACh dose-response curve vs vehicle) [11]
